28 compounds from PubChem BioAssay (NCI) can be followed below.

SMILES strings stand for the structures.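 Values below derive from 48-hour exposures of cells grown in 96-well plates, with endpoints linearly interpolated between the two concentrations bracketing the appropriate inhibition level. TGI marks complete inhibition of growth.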

Assay in all cases: NCI anticancer screen, dose series, 48 h
The test system of assay [1] is HS 578T breast.
The subject of assay [2] is SN12C renal.
Assay [3] has as its system HCT-116 colon.
Assay [4] relates to LOX IMVI melanoma.
For assay [5], the system named is MDA-MB-435.
For assay [6], the system named is HT29 colon.
For assay [7], the system named is NCI-H460 lung.
In assay [8] the test system is MALME-3M melanoma.
For assay [9], the system named is COLO 205 colon.
Assay [10] deals with KM12 colon.

Regarding `c1csc(-c2csc(-c3cccs3)c2)c1`, the TGI in assay [1], in assay [2], in [3], in assay [4], in assay [5] and in [6] was over 100 µM throughout. Further, the TGI in assay [7] was over 100 µM; in assay [8], over 100 µM; in [9], 32.8 µM; in assay [10] it was over 100 µM.
As for `O=C(n1c(=O)n(-c2ccc([N+](=O)[O-])cc2)c(=O)n1C(=O)C(Cl)(Cl)Cl)C(Cl)(Cl)Cl`, the TGI in assay [1], in assay [2], in assay [3], in assay [4], in [5] and in [6] was over 100 µM each time. Besides, the TGI in assay [7], in assay [8], in assay [9] and in assay [10] was over 100 µM each time.
With `Cc1cc(C(C)(C)C)c(OCCCN2CCOCC2)c(C(C)(C)C)c1`, the TGI in [1] amounted to 38.6 µM; in assay [2], 33 µM; in assay [3], 31.4 µM; in [4] it was 36.5 µM; in assay [5], 38.2 µM; in [6] it was 32.7 µM. For the same compound, the TGI in [7] was over 100 µM; in [8], 35 µM; in assay [9], 30.6 µM; in assay [10] it was 36 µM.
On to `NC(=S)N1N=C(c2ccc3c(c2)CCC3)CC1c1ccccc1` (stereo not given), for which the TGI in assay [1] is over 100 µM; in assay [2], over 100 µM; in assay [3], 87.6 µM; in assay [4] it was over 100 µM; in [5] it was 96.9 µM; in [6], over 100 µM. The TGI in assay [7] is 64.9 µM; in [8] it was 74.4 µM; in [9] it was 50.8 µM; in [10], over 100 µM.
On to `CC1=C(C(=O)OC(C)C)C(c2cccc([N+](=O)[O-])c2)C(C(=O)OC(CO[N+](=O)[O-])CO[N+](=O)[O-])=C(C)N1` (stereo not given), for which the TGI in [1] was over 41.9 µM; in assay [2], over 34 µM; in [3], 9.36 µM; in assay [4], 11 µM; in assay [5] it was 15.3 µM; in assay [6], 21 µM. In addition, the TGI in [7] is over 36.7 µM; in assay [8] it was over 100 µM; in [9] it was 8.39 µM; in assay [10], 12.9 µM.
As to `CN(NC(=O)/C(=C/C=C/c1ccccc1)NC(=O)c1ccccc1)C1=C(Cl)C(=O)[N+](c2ccccc2)=CC1`, the TGI in assay [1] is over 100 µM; in [2] it was 66 µM; in assay [3], 45.7 µM; in assay [4], 32.3 µM; in assay [5], 32.9 µM; in [6] it was over 100 µM. The TGI is over 100 µM in [7], over 100 µM in assay [8], 33.7 µM in [9] and 34 µM in [10].
As to `CCCCC[C@@H]1OC(=O)[C@@]2(CC3c4ccccc4C2c2ccccc23)[C@H]1C(=O)OC`, the TGI in assay [1], in assay [2], in assay [3], in assay [4], in assay [5] and in assay [6] was over 100 µM in each case. For the same compound, the TGI is over 100 µM in [7], over 100 µM in assay [8], 30.5 µM in [9] and over 100 µM in assay [10].
`O=C(O)c1cc2c(cc1CC(Cc1ccccc1)C(=O)O)CCC2` (stereo not given): the TGI in assay [1], in [2], in assay [3], in assay [4], in [5] and in assay [6] was over 100 µM each time. The TGI in [7], in [8], in [9] and in [10] was over 100 µM in each case.
For `O=C(NC(Cc1c[nH]c2ccccc12)C(=O)O)/C(=C/c1ccccc1)NC(=O)c1ccccc1` (stereo not given), the TGI in [1], in assay [2], in assay [3], in assay [4], in assay [5] and in [6] was over 100 µM throughout. The TGI in [7], in assay [8], in [9] and in assay [10] was over 100 µM throughout.
`CCOc1cc(C=Nc2ccc(Oc3ccc(Cl)cc3)c(Cl)c2)ccc1O`: the TGI was 45.4 µM in assay [1]; 38.8 µM in assay [2]; 37.8 µM in assay [3]; 39.9 µM in assay [4]; over 100 µM in assay [5]; 46.6 µM in [6]. Also, the TGI came to 43.2 µM in assay [7], 52.6 µM in [8], 44.6 µM in [9] and 39 µM in assay [10].
`Oc1cc(Br)cc2cc(Br)cnc12`: the TGI is 63.8 µM in assay [1]; 73 µM in assay [2]; over 100 µM in [3]; over 100 µM in [4]; over 100 µM in assay [5]; over 100 µM in [6]. For the same compound, the TGI was 22.1 µM in assay [7], 58.2 µM in assay [8], over 100 µM in assay [9] and over 100 µM in [10].
For the compound `O/N=C1/CCCCC1NO` (stereo not given), the TGI in assay [1], in assay [2], in assay [3], in assay [4], in assay [5] and in [6] was over 100 µM in each case. Moreover, the TGI in assay [7], in assay [8], in assay [9] and in assay [10] was over 100 µM throughout.
On to `C[N+](C)(C)c1nc(N)nc2c1ncn2C1OC(CO)C(O)C1O` (stereo not given), for which the TGI in assay [1], in [2], in [3], in assay [4], in [5] and in assay [6] was over 100 µM throughout. Moreover, the TGI in assay [7], in assay [8], in assay [9] and in [10] was over 100 µM in each case.
As to `O=c1[nH]nc(Cc2ccc([N+](=O)[O-])cc2)[nH]1`, the TGI in assay [1], in [2], in assay [3], in assay [4], in [5] and in assay [6] was over 100 µM each time. Further, the TGI in [7], in [8], in assay [9] and in [10] was over 100 µM throughout.
Regarding `Nc1ncc(Cc2nn3c(COc4ccc(Cl)cc4)nnc3s2)s1`, the TGI in assay [1], in assay [2], in assay [3], in assay [5], in [6] and in [7] was over 100 µM in each case. The TGI in [8], in assay [9] and in assay [10] was over 100 µM throughout.
For the compound `O=C(O)C1(Cc2ccc3c(c2)CCC3)Cc2cc3c(cc2C1)CCC3`, the TGI in assay [1], in assay [3], in assay [4], in [5], in assay [6] and in [8] was over 100 µM each time. The TGI in assay [9] and in assay [10] was over 100 µM each time.
With `Cc1ccc2c3ccc4c(c3n(C)c2c1)C(=O)C=CC4=O`, the TGI in assay [1] is over 10 µM; in [2], over 10 µM; in assay [3], 4.95 µM; in assay [4], over 10 µM; in [5] it was over 10 µM; in [6], over 10 µM. Also, the TGI in assay [7] is over 10 µM; in assay [8], 6.01 µM; in assay [9], 5.51 µM; in [10] it was over 10 µM.
As for `COC(=O)C[C@H]1[C@]2(C)C3=C(C)[C@H](c4ccoc4)CC3O[C@@H]2[C@@H]2OC(=O)[C@]3(C)CCC(=O)[C@@]1(C)[C@@H]23` (stereo not given in full), the TGI in assay [1], in assay [2], in assay [3], in assay [4], in assay [5] and in [6] was over 100 µM each time. Also, the TGI in [7], in assay [8], in assay [9] and in assay [10] was over 100 µM throughout.
As to `Cc1ccc2c(=O)c3c(O)c4c(cc3n(C)c2c1)OC(C)(C)C=C4`, the TGI in [1], in assay [2], in assay [3], in [4], in [5] and in assay [6] was over 10 µM each time. Further, the TGI in assay [7], in [8], in [9] and in assay [10] was over 10 µM throughout.
In the case of `Cc1cccc(/C=N/NC(=S)NC(C)(C)C)n1`, the TGI in assay [1], in assay [2], in assay [3], in assay [4], in assay [5] and in [6] was over 100 µM in each case. For the same compound, the TGI in assay [7], in [8], in assay [9] and in assay [10] was over 100 µM in each case.
Turning to `COC(=O)[C@]12CCC(=O)N1[C@H](C(=O)O)Cc1c2[nH]c2ccccc12`, the TGI in assay [1], in [2], in assay [3], in [4], in assay [5] and in assay [6] was over 100 µM each time. For the same compound, the TGI in assay [7], in assay [8], in assay [9] and in [10] was over 100 µM throughout.
For the compound `C=C(Cl)C(=C)CCC(Cl)C(C)(C)Cl` (stereo not given), the TGI in [1], in assay [2], in assay [3], in assay [4], in assay [5] and in [6] was over 100 µM throughout. Further, the TGI in assay [7], in assay [8], in assay [9] and in assay [10] was over 100 µM each time.
For `Cc1cc2nnn(C3CCCO3)c2cc1C` (stereo not given), the TGI in assay [1], in assay [2], in assay [3], in assay [5], in assay [6] and in assay [7] was over 100 µM throughout. The TGI in [8] and in assay [9] was over 100 µM each time.
On to `CNc1ccc([N+](=O)[O-])cc1C(=O)N1CCC[C@H]1CO`, for which the TGI in [1], in assay [2], in assay [3], in [4], in [5] and in assay [6] was over 100 µM throughout. Further, the TGI in assay [7], in assay [8], in [9] and in assay [10] was over 100 µM in each case.
Consider `CN(C)CCCN1C(=O)N(CCCN(C)C)c2c3cc(O)ccc3nc3c([N+](=O)[O-])ccc1c23`, for which the TGI in [1] was 60 µM; in assay [2] it was 49.1 µM; in [3], 38.2 µM; in assay [4], 26.6 µM; in [5] it was 36.2 µM; in assay [6], 27.2 µM. The TGI turned out to be 70.4 µM in [7], 33.9 µM in assay [8], 27.5 µM in assay [9] and 29.8 µM in assay [10].
With `COC(=O)C1CC(C=O)=C(SC)N1` (stereo not given), the TGI in assay [1], in [3], in [5], in [6], in assay [7] and in assay [8] was over 50 µM in each case. The TGI in assay [9] and in assay [10] was over 50 µM in each case.
With `CN(CCc1ccccn1)C(=S)N/N=C/c1ccccn1`, the TGI in assay [1] was over 87.2 µM; in assay [2], over 36.2 µM; in assay [4], 13.6 µM; in assay [5], 38.1 µM; in assay [6], 43.1 µM; in assay [7], 2.07 µM. The TGI in assay [8] amounted to 8.81 µM; in assay [9], 0.727 µM; in assay [10] it was 17.1 µM.
For the compound `O=c1oc2ccccc2cc1-c1nc2ccccc2s1`, the TGI was 20.4 µM in [1]; over 50.7 µM in assay [2]; 24.2 µM in assay [4]; 18.1 µM in [5]; 25.8 µM in [6]; 53 µM in [7]. The values for the TGI in assay [8] and in assay [10] were 9.2 µM and over 54.3 µM, respectively.
